According to patent EP0752477A2, “Expression vectors that produce steroid receptors, steroid receptor chimera, screening assays for steroid receptors and clinical assays using synthesized receptors and receptor vectors” (BAYLOR COLLEGE OF MEDICINE, priority 1990, dated 1991):
Blank lines part the entries; values can stand above or below the molecule they belong to.

Experiments:
GAL4 = test: Activation of GAL4/ERE binding site chimera reporters by galactose in BJ3505; format: cell-based, Saccharomyces cerevisiae; settings: grown in galactose
Text: It is known that the estrogen receptor binds to and activates gene transcription through a 13 bp palindromic sequence (ERE). Placing ERE upstream of the promoter in a CYC-l-β-gal fusion vector and transforming into Saccharomyces cerevisiae results in a reporter which responded to estrogen in a receptor-dependent manner. To monitor the binding of the estrogen receptor to the ERE sequence in vivo, an interference assay was developed. An oligonucleotide containing a GAL4 (17 mer) recognition sequence and an ERE was constructed such that the two sites would overlap by 1 base. In this way only ER or GAL4 but not both molecules could occupy the same site. This sequence was cloned as a single, double, or triple copy distal to the promoter in a yeast iso-l-cytochrome C reporter (PC3).
These plasmids were introduced into yeast and assayed for transcriptional activity in the presence of glucose and galactose. The results are shown in Table I and reveal that galactose induced transcription of the reporter gene, and activity increased dramatically as the number of GAL sites increased. When grown in glucose, transcriptional activity was completely repressed.

YRpEG3 reporter = test: Activity of the YRpEG3 reporter alone (no receptor); format: cell-based, Saccharomyces cerevisiae
Description: The transcriptional activity of the receptor was assayed under similar conditions to Example 15 except that the cells were grown in glucose (Fig. 1B). In the presence of glucose, the transcriptional activity of GAL4 is completely repressed because the GAL4 protein is incapable of binding to its response element. Under these conditions estrogen receptor activation of the GAL4-ERE can be monitored without interference. […] At all concentrations of receptor the activation of transcription was entirely hormone dependent.

[1] = target: T1, chicken progesterone receptor (Gallus gallus, UniProt P07812); test: β-Galactosidase transcription assay in yeast with expression plasmid and reporter YRpP1; format: cell-based
T1 construct: ubiquitin (N, cleaved yes); expressed in transfected cells
T1 sequence (P07812 1-786): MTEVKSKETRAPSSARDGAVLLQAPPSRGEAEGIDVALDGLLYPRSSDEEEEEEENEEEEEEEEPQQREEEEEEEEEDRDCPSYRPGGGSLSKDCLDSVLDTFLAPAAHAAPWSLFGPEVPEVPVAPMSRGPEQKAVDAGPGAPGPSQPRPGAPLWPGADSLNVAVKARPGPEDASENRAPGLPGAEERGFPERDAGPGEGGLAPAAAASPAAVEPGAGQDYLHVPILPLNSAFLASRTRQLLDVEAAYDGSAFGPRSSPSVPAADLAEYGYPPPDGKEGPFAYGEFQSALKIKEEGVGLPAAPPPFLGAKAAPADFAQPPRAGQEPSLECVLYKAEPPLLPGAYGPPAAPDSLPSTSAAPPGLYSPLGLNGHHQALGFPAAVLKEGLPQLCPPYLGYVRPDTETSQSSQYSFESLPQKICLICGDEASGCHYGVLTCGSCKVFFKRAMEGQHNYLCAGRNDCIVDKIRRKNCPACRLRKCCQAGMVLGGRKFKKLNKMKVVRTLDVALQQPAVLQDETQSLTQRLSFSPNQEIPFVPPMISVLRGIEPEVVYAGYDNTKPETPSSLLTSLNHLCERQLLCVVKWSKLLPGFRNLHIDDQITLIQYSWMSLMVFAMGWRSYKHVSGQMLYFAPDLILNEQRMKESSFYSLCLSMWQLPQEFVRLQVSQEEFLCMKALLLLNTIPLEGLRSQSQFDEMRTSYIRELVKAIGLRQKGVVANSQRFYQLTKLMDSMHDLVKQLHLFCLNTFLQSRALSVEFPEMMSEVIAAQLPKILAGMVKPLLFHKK
Description: A reporter YRpP1 containing the progesterone responsive sequence and the β-Galactosidase gene was used to quantitate the transcriptional activity of the chicken progesterone receptor. Yeast containing both the expression and the reporter plasmids was grown overnight in minimal media supplemented with 2% glucose. […] Four sets of tubes were inoculated (a) no additions, (b) +100µM CuSO4, (c) +0.1µM progesterone, and (d) +100µM CuSO4, 0.1µM progesterone. When the cells reached mid-log phase they were harvested by centrifugation. The cells were lysed using glass beads and the cytosol was clarified by centrifugation. Aliquots (1-100µg) of protein were assayed for β-Galactosidase activity according to the method of Miller and expressed as units/mg protein.

human estrogen receptor = test: Estrogen responsive reporter assay in yeast, wild type estrogen receptor; format: cell-based; settings: ER
Text: (§1) The mechanism by which steroid receptors enhance transcription is unclear, however, there is a clear correlation between the ability of the receptor to activate transcription and the presence of an acidic activation region in the protein. […] As illustrated in Fig. 9 this was accomplished for the human estrogen receptor by digestion of the yeast expression vector for estrogen, YEpE2 with Notl, filling in the ends with T4 polymerase and religating in the presence of the filled in Rsal - Sall fragment of the VP16 protein. After the receptor is inserted in the proper orientation it produces a chimeric receptor which includes within its reading frame a VP16 activating domain.
(§2) A comparison of the wild type estrogen receptor and the modified receptor was made in yeast using the estrogen responsive reporters.

Super ER = test: Estrogen responsive reporter assay in yeast, modified (super) estrogen receptor with VP16 activating domain; format: cell-based, human; settings: +CuSO4, no E2
Text: as §1, §2

Structure (SMILES): O=C[C@H](O)[C@@H](O)[C@@H](O)[C@H](O)CO [Galactose, galactose]
TRANSCRIPTIONAL ACTIVITY (GAL4; reporter YRpEG1, 1 binding site): 860 | TRANSCRIPTIONAL ACTIVITY (GAL4; reporter YRpEG2, 2 binding sites): 2,350 | TRANSCRIPTIONAL ACTIVITY (GAL4; reporter YRpEG3, 3 binding sites): 16,500

Structure (SMILES): COc1ccc2c(c1)CCC(c1ccccc1)=C2c1ccc(OCCN2CCCC2)cc1 [nafoxidine]
direct effects on the activity of the YRpEG3 reporter alone (YRpEG3 reporter): no direct effects

Structure (SMILES): O=S(=O)([O-])[O-].[Cu+2] [CuSO4]
β-Galactosidase activity ([1]; +100µM CuSO4, no progesterone): <500 Miller units | EC50 ([1]; CUP1 promoter driven receptor expression, other data, read-out: concentration sufficient to activate half maximally this transcription unit): 1000 nM | activity of estrogen responsive reporter (human estrogen receptor; +CuSO4, no E2): 473 Miller units per milligram of protein | activity of estrogen responsive reporter (Super ER): 4133 Miller units per milligram of protein | direct effects on the activity of the YRpEG3 reporter alone (YRpEG3 reporter): no direct effects

β-Galactosidase activity ([1]; +0.1µM progesterone, no CuSO4): <500 Miller units | β-Galactosidase activity ([1]; +100µM CuSO4, 0.1µM progesterone): 50,000 Miller units
Structure (SMILES): CC(=O)[C@H]1CC[C@H]2[C@@H]3CCC4=CC(=O)CC[C@]4(C)[C@H]3CC[C@]12C [Prog., progesterone, reference compound]

Structure (SMILES): C[C@]12CC[C@@H]3c4ccc(O)cc4CC[C@H]3[C@@H]1CC[C@@H]2O [E2, estradiol]
activity of estrogen responsive reporter (human estrogen receptor; +CuSO4+E2): 4344 Miller units per milligram of protein | activity of estrogen responsive reporter (human estrogen receptor; +E2): 5760 Miller units per milligram of protein | direct effects on the activity of the YRpEG3 reporter alone (YRpEG3 reporter): no direct effects
